Measured values as given in patent publication US20140113904A1, “TREATMENT OF CANCER WITH TOR KINASE INHIBITORS” (SIGNAL PHARMACEUTICALS, LLC, priority 2012, published 2014).
One block for each compound: values may come before it.

Legend:
PRAS40 (T246) = experiment: Phospho-PRAS40 (T246) in PC-3 cell lysates, MSD (Compound 2); format: cell-based; conditions: Homo sapiens; PC-3, 1 hour; read-out: mTORC2 PRAS40 (T246) IC50
Experimental: The direct substrate for mTORC1 was 4E-BP1(T46) and the indirect downstream substrate was S6RP (S235/S236). The direct substrate for mTORC2 was AKT (S473) and the indirect downstream substrates measured were GSK3β(S9) and PRAS40 (T246). Additionally, the phosphorylation status of AKT (T308), a phosphorylation site for PDK1, was monitored. Concentration-response curves were plotted and IC50 values determined. Cells were plated in 96-well flat bottom plates at the required density (PC-3 cells/well) and the cells were allowed to equilibrate at 37° C., 5% CO2 overnight. […] After the incubation period, the culture media was removed carefully with an aspirator. The plate was placed on ice and 50 μL of 1× Tris Lysis Buffer was added to each well. The plate was placed on a shaker at 4° C. for 1 hour to lyse the cells. At that point, the plate was either frozen at -80° C. for later analysis or immediately assayed for phosphoproteins as described below. To monitor interassay variability, a reference standard was included in the assay for PC-3 cells and the coefficient of variation for assay of […]) was 9.3% (n=50) and for assay of p-AKT (S473) was 28.6% (n=50). The assay plate was incubated with 150 μL of MSD Blocking Buffer for 1 hour with shaking at room temperature. […] Then 150 μL of 1×MSD Read Buffer T was added to each well. The plate was read on the SECTOR Imager plate reader.

PC3 tumors [1] = experiment: Apoptosis TUNEL assay in PC3 tumors (Compound 2); format: in vivo, SCID mice; conditions: 5 mg/kg oral QD for 6 days, data not shown
PC3 cells = experiment: Cell cycle distribution by flow cytometry-based PI staining; design: species or system human
Experimental: PC3 tumor cells were plated at 250,000 cells per well in a 6-well plate and allowed to equilibrate overnight in 5% CO2 at 37° C. For treatment, the media was aspirated to remove dead/floating cells before addition of 3 mL of media with or without compound. […] The cells were then processed for cell cycle analysis. The media was transferred into a 15 mL tube. The cells were trypsinized and transferred to the same tube. The cells were then spun at 12 000 rpm, re-suspended in 500 μL propidium iodide (PI) staining buffer, and incubated at room temperature in the dark for 30 minutes. The sample was then analyzed on a FACSCaliber instrument. The cell cycle experiments were performed on two independent occasions.
The raw data collected from BD FACS Calibur was analyzed by cell cycle software ModFit LT (Verity Software House, Inc). The histogram was generated using the automatic analysis setting. All numbers generated by ModFit LT were transferred to Microsoft Excel and graphed.
PC3 cells display an aneuploid phenotype which is evident in the comparison with HeLa cells.

PC3 tumors [2] = experiment: Antitumor activity of Compound 1 in PC3 human prostate cancer xenograft model; format: in vivo, SCID mice; conditions: for tumor volume reduction compared with vehicle control: Day 31; for tumor volume reduction compared to vehicle control / tumor inhibition compared to vehicle control: day 31
Experimental: The BID dose groups were dosed with a 10-hour separation between the morning and evening doses. […] At the end of each study, plasma and/or tumor samples were collected.
PC3 cell line was obtained from American Tissue Culture Collection (ATCC) (Gaithersberg, Md.) and grown in growth medium containing Ham's F12K medium with 2 mM L-glutamine adjusted to contain 1.5 g/L sodium bicarbonate and 10% of fetal bovine serum. The cells were detached from tissue culture flasks using trypsin-EDTA. After centrifugation, the cell pellets were suspended in phosphate buffered saline (PBS) and counted using a hemocytometer.
Mice were anesthetized with inhaled isoflurane and then inoculated with PC3 tumor cells subcutaneously on the right hind leg with 0.1 mL of single cell suspensions in Matrigel using a sterile 1 mL syringe fitted with a 26 gauge needle. Following inoculation, the mice were returned to microisolator cages.
Following inoculation, the tumors were allowed to grow to about 100 mm^3 or 500 mm^3 prior to randomization. For efficacy studies, animals with tumors of approximately 100 mm^3 were used. The typical number of days required for tumors to reach 100 mm^3 was 9 to 11 days. The tumor of each animal was measured and animals with tumors ranging between 100 and 200 mm^3 were included in the study. For tolerability and regression studies, animals with tumors of approximately 500 mm^3 (range 300-500 mm^3) were used. The typical number of days required for tumors to reach 500 mm^3 was 20 to 22 days. The animals were then distributed randomly into various cages and the cages were randomly assigned to vehicle, positive control or test article groups. All of the mice were tagged with metal ear tags on the right ear. A typical efficacy study group consisted of 8 to 10 animals. Tolerability study group consisted of 4-6 animals.
The formulations were homogenized using a Teflon™ pestle and mortar (Potter-Elvehjem tissue grinder). Between the doses, the formulated compound was stored under constant stirring using a magnetic stirrer at 4° C. in the dark. The test article and vehicle were administered by oral gavage. […] Sterile syringes and gavage needles were used for compound administration. All the procedures including injections were done in biosafety cabinets sprayed with 70% ethanol prior to use.
Tumor volumes were determined prior to the initiation of treatment and were considered as the starting volumes. Thereafter, tumors were measured twice a week for the duration of the study. The long and short axes of each tumor were measured using a digital caliper in millimeters. The tumor volumes were calculated using the formula: width^2× length/2. The tumor volumes were expressed in cubic millimeters (mm^3).

[3] = Mouse plasma protein binding; format: in vitro ADME; conditions: Compound 1

IC50 (PRAS40 (T246)): 49 nM
Structure (SMILES): CCN1C(=O)CNc2ncc(-c3ccc(-c4nc[nH]n4)nc3C)nc21 [Compound 2, 1-ethyl-7-(2-methyl-6-(1H-1,2,4-triazol-3-yl)pyridin-3-yl)-3,4-dihydropyrazino[2,3-b]pyrazin-2(1H)-one]
number of TUNEL-positive cells vs vehicle (PC3 tumors [1]): No significant change

mouse plasma protein binding [3]: 88%
Structure (SMILES): CO[C@H]1CC[C@H](N2C(=O)CNc3ncc(-c4ccc(C(C)(C)O)nc4)nc32)CC1 [Compound 1, 7-(6-(2-hydroxypropan-2-yl)pyridin-3-yl)-1-((1r,4r)-4-methoxycyclohexyl)-3,4-dihydropyrazino-[2,3-b]pyrazin-2(1H)-one]
% G1 (PC3 cells; 0.5 μM, 24 hours): 81.1%
% G1a (PC3 cells; 0.5 μM, 24 hours): 79%
% G1 (PC3 cells; 1 μM, 24 hours): 88.6%
% G1a (PC3 cells; 1 μM, 24 hours): 84.8%
% G1 (PC3 cells; 5 μM, 24 hours): 89.2%
% G1a (PC3 cells; 5 μM, 24 hours): 83.9%
induction of apoptosis (sub-G1 peak) (PC3 cells; 24 hours): did not appear to be induction of apoptosis
effect on cell cycle distribution (PC3 cells; concentrations relevant to growth inhibition): capable of inducing a G1 arrest
tumor volume reduction compared with vehicle control (PC3 tumors [2]; 5 mg/kg BID): 64.9%
tumor volume reduction compared with vehicle control (PC3 tumors [2]; 10 mg/kg BID): 79.9%
tumor volume reduction compared to vehicle control (PC3 tumors [2]; 10 mg/kg QD oral): 46.1%
average tumor volume (PC3 tumors [2]; 10 mg/kg QD, Day 31 (vehicle 712)): 383 mm^3
tumor inhibition compared to vehicle control (PC3 tumors [2]; 25 mg/kg Q2D): 72%
tumor inhibition compared to vehicle control (PC3 tumors [2]; 25 mg/kg Q3D): 61%
average tumor volume (PC3 tumors [2]; 25 mg/kg QD group, Day 52 after 3 weeks without dosing): about 427 mm^3
tumor response (PC3 tumors [2]; 25 mg/kg QD oral, 3 weeks): Tumor regression
tumor volume reduction compared to vehicle control (PC3 tumors [2]; 25 mg/kg QD oral): 86.7%
average tumor volume (PC3 tumors [2]; 25 mg/kg QD, Day 31 (158 on Day 11; vehicle 712)): 123 mm^3
tumor volume at the end of the second cycle (PC3 tumors [2]; 25 mg/kg QD, second 3-week cycle): approximately 729 mm^3
tumor inhibition compared to vehicle control (PC3 tumors [2]; 50 mg/kg Q3D): 82%
tumor inhibition compared to vehicle control (PC3 tumors [2]; 50 mg/kg Q5D): 61%
tumor inhibition compared to vehicle control (PC3 tumors [2]; 50 mg/kg Q7D): 49%
lowest (minimal) efficacious dose (PC3 tumors [2]; BID, determined by 65% tumor volume inhibition): 5 mg/kg
tumor response (PC3 tumors [2]; regression study, 1 mg/kg BID, vs vehicle): significantly (p<0.01) slowed tumor growth
tumor response (PC3 tumors [2]; regression study, 5 mg/kg BID): stasis of tumor growth
tumor response (PC3 tumors [2]; regression study, 10 mg/kg BID): regression of PC3 tumors
average tumor volume (PC3 tumors [2]; regression study, 10 mg/kg BID, day 43 (482.2±12.6 on day 20)): 343.6±32.6 mm^3
tumor response (PC3 tumors [2]; regression study, 25 mg/kg Q2D): regression of tumors initially during the first 2 weeks of dosing
tumor volume (PC3 tumors [2]; regression study, 25 mg/kg Q2D, day 43 (475.1±19.6 on day 20)): 549.4±45.7 mm^3
